Values quoted from earlier work, collected in patent US20200188476A1, “ANTI-MICROBIAL AGENT-POLYMER CONJUGATES AND METHODS OF USE THEREOF” (The Regents of the University of California, priority 2017, published 2020).

Assays:
bacteria [1] = system: bacteria
[2] = human, in vivo
bacteria [3] = system: bacteria; remark: listed apart in the source

## Polymyxin B nonapeptide [nonapeptide of polymyxin B]
Cell culture
  reduction of toxicity in cell culture relative to polymyxin B: about 100 fold
Bacteria [1]
  reduction of antibacterial activity relative to polymyxin B: 2-64 fold

## colistin
[2]
  overall incidence of neurotoxicity or neuropathy: 7.3%

## octanoyl polymyxin B heptapeptide
Bacteria [3]
  concentration that inhibits the growth of bacteria: 128 µg/mL

## octanoyl polymyxin B nonapeptide
Bacteria [3]
  inhibition of bacterial growth: very potent agents to inhibit bacterial growth

## octanoyl polymyxin B octapeptide
Bacteria [3]
  inhibition of bacterial growth: very potent agents to inhibit bacterial growth
